#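 The concentration for 50% growth inhibition is given as GI50. At the TGI there is no net growth.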
# Columns and labels:
# Assay in all cases: NCI tumour cell line growth inhibition, 384-well format
# 786-0 renal = tested on: 786-0 renal
# A498 renal = tested on: A498 renal
# A549 NSCLC = tested on: A549 NSCLC
# ACHN renal = tested on: ACHN renal
# BT-549 breast = tested on: BT-549 breast
# CAKI-1 renal = tested on: CAKI-1 renal
# CCRF-CEM leukemia = tested on: CCRF-CEM leukemia
# COLO 205 colon = tested on: COLO 205 colon
# DU-145 prostate = tested on: DU-145 prostate
# EKVX NSCLC = tested on: EKVX NSCLC
# HCC-2998 colon = tested on: HCC-2998 colon
# HCT-15 colon = tested on: HCT-15 colon
# HL-60(TB) leukemia = tested on: HL-60(TB) leukemia
# HOP-62 NSCLC = tested on: HOP-62 NSCLC
# HOP-92 NSCLC = tested on: HOP-92 NSCLC
# HS 578T breast = tested on: HS 578T breast
# HT29 colon = tested on: HT29 colon
# IGROV1 ovarian = tested on: IGROV1 ovarian
# K-562 leukemia = tested on: K-562 leukemia
# KM12 colon = tested on: KM12 colon
# LOX IMVI melanoma = tested on: LOX IMVI melanoma
# M14 melanoma = tested on: M14 melanoma
# MALME-3M melanoma = tested on: MALME-3M melanoma
# MCF7 breast = tested on: MCF7 breast
# MDA-MB-231 breast = tested on: MDA-MB-231 breast
# MDA-MB-435 melanoma = tested on: MDA-MB-435 melanoma
# MDA-MB-468 breast = tested on: MDA-MB-468 breast
# MOLT-4 leukemia = tested on: MOLT-4 leukemia
# NCI-H226 lung = tested on: NCI-H226 lung
# NCI-H23 lung = tested on: NCI-H23 lung
# NCI-H322M lung = tested on: NCI-H322M lung
# NCI-H460 NSCLC = tested on: NCI-H460 NSCLC
# NCI-H522 lung = tested on: NCI-H522 lung
# NCI/ADR-RES ovarian = tested on: NCI/ADR-RES ovarian
# OVCAR-3 ovarian = tested on: OVCAR-3 ovarian
# OVCAR-4 ovarian = tested on: OVCAR-4 ovarian
# OVCAR-5 ovarian = tested on: OVCAR-5 ovarian
# OVCAR-8 ovarian = tested on: OVCAR-8 ovarian
# PC-3 prostate = tested on: PC-3 prostate
# RPMI-8226 leukemia = tested on: RPMI-8226 leukemia
# RXF 393 renal = tested on: RXF 393 renal
# SF-268 CNS = tested on: SF-268 CNS
# SF-295 CNS = tested on: SF-295 CNS
# SF-539 CNS = tested on: SF-539 CNS
# SK-MEL-28 melanoma = tested on: SK-MEL-28 melanoma
# SK-MEL-5 melanoma = tested on: SK-MEL-5 melanoma
# SK-OV-3 ovarian = tested on: SK-OV-3 ovarian
# SN12C renal = tested on: SN12C renal
# SNB-19 CNS = tested on: SNB-19 CNS
# SNB-75 CNS = tested on: SNB-75 CNS
# SR leukemia = tested on: SR leukemia
# SW-620 colon = tested on: SW-620 colon
# T-47D breast = tested on: T-47D breast
# TK-10 renal = tested on: TK-10 renal
# UACC-257 melanoma = tested on: UACC-257 melanoma
# UACC-62 melanoma = tested on: UACC-62 melanoma
# UO-31 renal = tested on: UO-31 renal
smiles,measurement,setting,value
C[C@@H]1COCCN1c1nc(-c2cnc(N)cc2C(F)F)nc(N2[C@H](C)COC[C@@H]2C)n1,GI50,786-0 renal,116 nM
same,TGI,786-0 renal,2780 nM
same,GI50,A498 renal,23.1 nM
same,TGI,A498 renal,407 nM
same,GI50,A549 NSCLC,52.9 nM
same,TGI,A549 NSCLC,3890 nM
same,GI50,ACHN renal,81.2 nM
same,TGI,ACHN renal,2550 nM
same,GI50,BT-549 breast,97.7 nM
same,TGI,BT-549 breast,1140 nM
same,GI50,CAKI-1 renal,123 nM
same,TGI,CAKI-1 renal,4840 nM
same,GI50,CCRF-CEM leukemia,106 nM
same,TGI,CCRF-CEM leukemia,1050 nM
same,GI50,COLO 205 colon,152 nM
same,TGI,COLO 205 colon,3480 nM
same,GI50,DU-145 prostate,143 nM
same,TGI,DU-145 prostate,10400 nM
same,GI50,EKVX NSCLC,122 nM
same,TGI,EKVX NSCLC,1080 nM
same,GI50,HCC-2998 colon,104 nM
same,TGI,HCC-2998 colon,1610 nM
same,GI50,HCT-15 colon,59 nM
same,TGI,HCT-15 colon,1330 nM
same,GI50,HL-60(TB) leukemia,466 nM
same,TGI,HL-60(TB) leukemia,1660 nM
same,GI50,HOP-62 NSCLC,145 nM
same,TGI,HOP-62 NSCLC,4220 nM
same,GI50,HOP-92 NSCLC,84.9 nM
same,TGI,HOP-92 NSCLC,1570 nM
same,GI50,HS 578T breast,40.5 nM
same,TGI,HS 578T breast,269 nM
same,GI50,HT29 colon,281 nM
same,TGI,HT29 colon,2440 nM
same,GI50,IGROV1 ovarian,36 nM
same,TGI,IGROV1 ovarian,238 nM
same,GI50,K-562 leukemia,211 nM
same,TGI,K-562 leukemia,1780 nM
same,GI50,KM12 colon,144 nM
same,TGI,KM12 colon,3090 nM
same,GI50,LOX IMVI melanoma,99 nM
same,TGI,LOX IMVI melanoma,1100 nM
same,GI50,M14 melanoma,117 nM
same,TGI,M14 melanoma,1490 nM
same,GI50,MALME-3M melanoma,27.1 nM
same,TGI,MALME-3M melanoma,218 nM
same,GI50,MCF7 breast,36.6 nM
same,TGI,MCF7 breast,1360 nM
same,GI50,MDA-MB-231 breast,61.4 nM
same,TGI,MDA-MB-231 breast,14400 nM
same,GI50,MDA-MB-435 melanoma,208 nM
same,TGI,MDA-MB-435 melanoma,2570 nM
same,GI50,MDA-MB-468 breast,54 nM
same,TGI,MDA-MB-468 breast,236 nM
same,GI50,MOLT-4 leukemia,90.3 nM
same,TGI,MOLT-4 leukemia,508 nM
same,GI50,NCI-H226 lung,75.9 nM
same,TGI,NCI-H226 lung,656 nM
same,GI50,NCI-H23 lung,264 nM
same,TGI,NCI-H23 lung,2600 nM
same,GI50,NCI-H322M lung,95.7 nM
same,TGI,NCI-H322M lung,2970 nM
same,GI50,NCI-H460 NSCLC,38.2 nM
same,TGI,NCI-H460 NSCLC,1510 nM
same,GI50,NCI-H522 lung,128 nM
same,TGI,NCI-H522 lung,1400 nM
same,GI50,NCI/ADR-RES ovarian,291 nM
same,TGI,NCI/ADR-RES ovarian,6440 nM
same,GI50,OVCAR-3 ovarian,119 nM
same,TGI,OVCAR-3 ovarian,10400 nM
same,GI50,OVCAR-4 ovarian,68.3 nM
same,TGI,OVCAR-4 ovarian,376 nM
same,GI50,OVCAR-5 ovarian,141 nM
same,TGI,OVCAR-5 ovarian,2280 nM
same,GI50,OVCAR-8 ovarian,165 nM
same,TGI,OVCAR-8 ovarian,11600 nM
same,GI50,PC-3 prostate,84.5 nM
same,TGI,PC-3 prostate,1960 nM
same,GI50,RPMI-8226 leukemia,16.6 nM
same,TGI,RPMI-8226 leukemia,48.5 nM
same,GI50,RXF 393 renal,73.2 nM
same,TGI,RXF 393 renal,4440 nM
same,GI50,SF-268 CNS,228 nM
same,TGI,SF-268 CNS,7710 nM
same,GI50,SF-295 CNS,41.4 nM
same,TGI,SF-295 CNS,369 nM
same,GI50,SF-539 CNS,116 nM
same,TGI,SF-539 CNS,2450 nM
same,GI50,SK-MEL-28 melanoma,121 nM
same,TGI,SK-MEL-28 melanoma,1170 nM
same,GI50,SK-MEL-5 melanoma,53.8 nM
same,TGI,SK-MEL-5 melanoma,312 nM
same,GI50,SK-OV-3 ovarian,53.3 nM
same,TGI,SK-OV-3 ovarian,595 nM
same,GI50,SN12C renal,95.9 nM
same,TGI,SN12C renal,10900 nM
same,GI50,SNB-19 CNS,711 nM
same,TGI,SNB-19 CNS,16100 nM
same,GI50,SNB-75 CNS,54.9 nM
same,TGI,SNB-75 CNS,2100 nM
same,GI50,SR leukemia,32.1 nM
same,TGI,SR leukemia,131 nM
same,GI50,SW-620 colon,319 nM
same,TGI,SW-620 colon,11500 nM
same,GI50,T-47D breast,18.7 nM
same,TGI,T-47D breast,156 nM
same,GI50,TK-10 renal,232 nM
same,TGI,TK-10 renal,4550 nM
same,GI50,UACC-257 melanoma,316 nM
same,TGI,UACC-257 melanoma,1560 nM
same,GI50,UACC-62 melanoma,114 nM
same,TGI,UACC-62 melanoma,899 nM
same,GI50,UO-31 renal,290 nM
same,TGI,UO-31 renal,16300 nM
